From patent US9284308B2, “Methylene linked quinolinyl modulators of RORγt” (Janssen Pharmaceutica NV, priority 2013, dated 2016)
Values joined by “and” are separate entries in the source; they are usually repeats but may differ in a detail not shown here. Equal values may be shown once. Where a name gives a salt, the structure may show the parent alone.

What was measured:
human RORγt LBD = target: T1, human RORγt LBD (Homo sapiens, UniProt P51449); assay: RORγt (LBD) reporter assay in HEK293T cells; type: cell-based; conditions: for inhibition at 6 µM: HEK-293T, read-out: RORγt (LBD) Reporter Assay, % inhibition @ 6 μM, 6 μM compound; for RORγt (LBD) Reporter Assay, % inhibition @ 6 μM: 6 μM compound
T1 construct: expressed in transfected cells; host or cells: HEK293T
T1 sequence (P51449 258-518): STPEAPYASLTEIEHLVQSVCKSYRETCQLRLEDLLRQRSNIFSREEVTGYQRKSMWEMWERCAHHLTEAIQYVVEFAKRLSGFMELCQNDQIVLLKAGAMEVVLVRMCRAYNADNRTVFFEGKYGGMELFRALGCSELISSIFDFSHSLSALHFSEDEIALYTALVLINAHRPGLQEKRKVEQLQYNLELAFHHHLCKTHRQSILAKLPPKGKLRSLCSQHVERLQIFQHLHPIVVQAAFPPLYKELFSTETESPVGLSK
From the text: RORγt (LBD) Reporter Assay
Cells used in the assay were co-transfected with two constructs. The first construct, pBIND-RORγt LBD, contained the wild type human RORγt LBD fused to the DNA binding domain of the GAL4 protein. The second construct, pGL4.31 (Promega Cat no. C935A), contained multiple GAL4 responsive DNA elements upstream of firefly luciferase. […] The mutant construct was called pBIND-RORγt-AF2.
The pBIND vector contains the GAL4 DNA Binding Domain (GAL4 DBD) and the renilla luciferase gene under control of the SV40 promoter. Renilla luciferase expression serves as a control for transfection efficiency and cell viability.
The reporter assay was performed by transiently transfecting HEK293T cells with 5 μg of pBIND-RORγt LBD or pBIND-RORγt LBD-AF2 and 5 μg pGL4.31 (Promega Cat no. C935A) using Fugene 6 (Invitrogen Cat no. E2691) at a 1:6 ratio of DNA:Fugene 6 in a T-75 flask in which cells were at least 80% confluent. Twenty four hours after bulk transfection, cells were plated into 96-well plates at 50,000 cells/well in phenol-red free DMEM containing 5% Lipid Reduced FCS and Pen/Strep. Six hours after plating, cells were treated with compounds for 24 hours. Media was removed and cells were lysed with 50 μL 1× Glo Lysis Buffer (Promega). Dual Glo Luciferase Reagent (50 μL/well) was then added and firefly luciferase luminescence was read on an Envision after a ten minute incubation. Finally, Stop and Glo reagent (50 μL/well) was added and renilla luciferase luminescence was read on an Envision after a ten minute incubation. […] Agonist compounds increase RORγt-driven luciferase expression, and antagonist or inverse agonist compounds decrease luciferase expression.

[1] = target: T2, human RORγt ligand binding domain (RORγt LBD) (Homo sapiens, UniProt P51449); assay: RORγt ThermoFluor assay (ligand binding affinity from protein thermal stability)
T2 construct: His-tag (N); TurboTEV protease cleavage site (ENLYFQG) (N); made in house; host or cells: E. coli (pHIS1, modified pET vector)
T2 sequence (P51449 with tags, fused parts or gaps): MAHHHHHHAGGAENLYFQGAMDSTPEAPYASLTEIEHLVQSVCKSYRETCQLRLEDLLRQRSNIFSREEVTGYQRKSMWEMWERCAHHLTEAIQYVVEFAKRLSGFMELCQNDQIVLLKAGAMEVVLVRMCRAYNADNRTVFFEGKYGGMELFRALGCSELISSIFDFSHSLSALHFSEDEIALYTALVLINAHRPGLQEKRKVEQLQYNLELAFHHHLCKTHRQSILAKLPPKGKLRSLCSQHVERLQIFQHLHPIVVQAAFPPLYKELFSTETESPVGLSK
Method: This approach is applicable to a wide variety of systems, and rigorous in theoretical interpretation through quantitation of equilibrium binding constants (KD).
The shift in the melting point described as a ΔTm is proportional to the concentration and affinity of the ligand.
RORγt ThermoFluor® Assay Construct
Protein and compound solutions are dispensed into black 384-well polypropylene PCR microplates (Abgene) and overlayed with silicone oil (1 μL, Fluka, type DC 200) to prevent evaporation.
Bar-coded assay plates are robotically loaded onto a thermostatically controlled PCR-type thermal block and then heated at a typical ramp-rate of 1° C./min for all experiments. Fluorescence was measured by continuous illumination with UV light (Hamamatsu LC6) supplied via fiber optic and filtered through a band-pass filter (380-400 nm; >6 OD cutoff). Fluorescence emission of the entire 384-well plate was detected by measuring light intensity using a CCD camera (Sensys, Roper Scientific) filtered to detect 500±25 nm, resulting in simultaneous and independent readings of all 384 wells. Images were collected at each temperature, and the sum of the pixel intensity in a given area of the assay plate was recorded versus temperature. Reference wells contained RORγt without compounds, and the assay conditions were as follows: • 0.065 mg/mL RORγt • 60 μM 1,8-ANS • 100 mM Hepes, pH 7.0 • 10 mM NaCl • 2.5 mM GSH • 0.002% Tween-20
Project compounds were arranged in a pre-dosed mother plate (Greiner Bio-one) wherein compounds are serially diluted in 100% DMSO by 1:2 from a high concentration of 10 mM over 12 columns within a series (column 12 is a reference well containing DMSO, no compound). The compounds were robotically dispensed directly into assay plates (1×=[…]) using a Hummingbird capillary liquid handling instrument (Digilab). Following compound dispense, protein and dye in buffer was added to achieve the final assay volume of 3 μL, followed by 1 μL of silicone oil.

Work on `COc1nc2ccc(C(O)(c3ccc(Cl)cc3)c3cncn3C)cc2c(Cl)c1Cc1ccc(C(F)(F)F)nc1` (single isomer, unassigned) [Example 39b] yielded an IC50 (human RORγt LBD) of 1200 nM, an inhibition at 6 µM (human RORγt LBD) of 86% and a Kd [1] of 1100 nM.
For `COc1nc2ccc(C(O)(c3ccc(C)nc3C)c3cnnn3C)cc2c(Cl)c1Cc1ccc(F)cc1` (single isomer, unassigned) [Example 48b, (4-Chloro-3-(4-fluorobenzyl)-2-methoxyquinolin-6-yl)(2,6-dimethylpyridin-3-yl)(1-methyl-1H-1,2,3-triazol-5-yl)methanol], the IC50 (human RORγt LBD) was roughly 6000 nM, the inhibition at 6 µM (human RORγt LBD) was 53% and the Kd [1] was 250 nM.
`COc1nc2ccc(C(O)(c3ccc(C)nc3C)c3cnnn3C)cc2c(C#N)c1Cc1ccc(F)cc1` (single isomer, unassigned) [Example 49b, 6-((2,6-Dimethylpyridin-3-yl)(hydroxy)(1-methyl-1H-1,2,3-triazol-5-yl)methyl)-3-(4-fluorobenzyl)-2-methoxyquinoline-4-carbonitrile] was tested, and the IC50 (human RORγt LBD) was roughly 3000 nM, the “RORγt (LBD) Reporter Assay, % inhibition @ 6 μM” value (“RORγt … % inhibition @ 6 μM” for short) (human RORγt LBD) was 62% and the Kd [1] was 410 nM.
For `COc1nc2ccc(C(O)(c3ccc(C)nc3C)c3cnnn3C)cc2c(C#N)c1Cc1ccc(F)cc1` (single isomer, unassigned) [Example 49c, 6-((2,6-Dimethylpyridin-3-yl)(hydroxy)(1-methyl-1H-1,2,3-triazol-5-yl)methyl)-3-(4-fluorobenzyl)-2-methoxyquinoline-4-carbonitrile], the IC50 (human RORγt LBD) was 38 nM and ~20 nM, the “RORγt … % inhibition @ 6 μM” value (human RORγt LBD) was 83% and the Kd [1] was 2.7 nM.
For `COc1nc2ccc(C(O)(c3cnnn3C)c3cnc(C)n3C)cc2c(Cl)c1Cc1ccc(F)cc1` (single isomer, unassigned) [Example 65b], the IC50 (human RORγt LBD) was 22 nM, the inhibition at 6 µM (human RORγt LBD) was 74% and the Kd [1] was 0.095 nM.
`COc1nc2ccc(C(O)(c3cnnn3C)c3cnc(C)n3C)cc2c(Cl)c1Cc1ccc(F)cc1` (single isomer, unassigned) [Example 65c] gave an IC50 (human RORγt LBD) of 7.2 nM and a Kd [1] of 0.48 nM.
For `COc1c(Cc2ccccc2)c(C(F)(F)F)nc2ccc(C(O)(c3ccc(Cl)cc3)c3cncn3C)cc12` (single isomer, unassigned) [Example 101c, (3-Benzyl-4-methoxy-2-(trifluoromethyl)quinolin-6-yl)(4-chlorophenyl)(1-methyl-1H-imidazol-5-yl)methanol], the “RORγt … % inhibition @ 6 μM” value (human RORγt LBD) was 89%.
`Cn1cncc1C(O)(c1ccc(C(F)(F)F)nc1)c1ccc2nc(-c3nccn3C)c(Cc3ccccc3)c(Cl)c2c1` (single isomer, unassigned) [Example 113c, (3-Benzyl-4-chloro-2-(1-methyl-1H-imidazol-2-yl)quinolin-6-yl)(1-methyl-1H-imidazol-5-yl)(6-(trifluoromethyl)pyridin-3-yl)methanol•TFA] gave an IC50 (human RORγt LBD) of roughly 2000 nM and a Kd [1] of 1200 nM.
`Cn1cncc1C(O)(c1ccc(C(F)(F)F)nc1)c1ccc2nc(-n3cccn3)c(Cc3ccccc3)c(C#N)c2c1` (single isomer, unassigned) [Example 114b, 3-Benzyl-6-(hydroxy(1-methyl-1H-imidazol-5-yl)(6-(trifluoromethyl)pyridin-3-yl)methyl)-2-(1H-pyrazol-1-yl)quinoline-4-carbonitrile•TFA] was tested, and the IC50 (human RORγt LBD) was 1400 nM and the Kd [1] was 120 nM.
With `Cn1cncc1C(O)(c1ccc(C(F)(F)F)nc1)c1ccc2nc(-n3cccn3)c(Cc3ccccc3)c(C#N)c2c1` (single isomer, unassigned) [Example 114c, 3-Benzyl-6-(hydroxy(1-methyl-1H-imidazol-5-yl)(6-(trifluoromethyl)pyridin-3-yl)methyl)-2-(1H-pyrazol-1-yl)quinoline-4-carbonitrile•TFA] the IC50 (human RORγt LBD) was 1900 nM and the Kd [1] was 710 nM.
`CC(=O)N1CCC(C(O)(c2ccc3nc(C(F)(F)F)c(Cc4ccccc4)c(Cl)c3c2)c2cncn2C)CC1` (single isomer, unassigned) [Example 115b, 1-(4-((3-Benzyl-4-chloro-2-(trifluoromethyl)quinolin-6-yl)(hydroxy)(1-methyl-1H-imidazol-5-yl)methyl)piperidin-1-yl)ethanone•TFA] gave an IC50 (human RORγt LBD) of 480 nM and a Kd [1] of 58 nM.
In the case of `CC(=O)N1CCC(C(O)(c2ccc3nc(C(F)(F)F)c(Cc4ccccc4)c(Cl)c3c2)c2cncn2C)CC1` (single isomer, unassigned) [Example 115c, 1-(4-((3-Benzyl-4-chloro-2-(trifluoromethyl)quinolin-6-yl)(hydroxy)(1-methyl-1H-imidazol-5-yl)methyl)piperidin-1-yl)ethanone•TFA], the IC50 (human RORγt LBD) is reported as 110 nM and the Kd [1] is reported as 17 nM.
With `COc1nc2ccc(C(N)(c3ccc(C(F)(F)F)nc3)c3cncn3C)cc2c(Cl)c1Cc1ccccc1` (single isomer, unassigned) [Example 120b, (3-Benzyl-4-chloro-2-methoxyquinolin-6-yl)(1-methyl-1H-imidazol-5-yl)(6-(trifluoromethyl)pyridin-3-yl)methanamine•TFA] the IC50 (human RORγt LBD) was greater than 6000 nM and the Kd [1] was 130 nM.
`COc1nc2ccc(C(N)(c3ccc(C(F)(F)F)nc3)c3cncn3C)cc2c(Cl)c1Cc1ccccc1` (single isomer, unassigned) [Example 120c, (3-Benzyl-4-chloro-2-methoxyquinolin-6-yl)(1-methyl-1H-imidazol-5-yl)(6-(trifluoromethyl)pyridin-3-yl)methanamine•TFA] gave an IC50 (human RORγt LBD) of roughly 6000 nM and a Kd [1] of 1100 nM.
For `CCN(CC)c1nc2ccc(C(O)(c3ccc(Cl)cc3)c3cncn3C)cc2c(C#N)c1Cc1ccc(-n2cccn2)cc1` (single isomer, unassigned) [Example 154b, 3-(4-(1H-pyrazol-1-yl)benzyl)-6-((4-chlorophenyl)(hydroxy)(1-methyl-1H-imidazol-5-yl)methyl)-2-(diethylamino)quinoline-4-carbonitrile], the inhibition at 6 µM (human RORγt LBD) was 101%.
`CCN(CC)c1nc2ccc(C(O)(c3ccc(Cl)cc3)c3cncn3C)cc2c(C#N)c1Cc1ccc(-n2cccn2)cc1` (single isomer, unassigned) [Example 154c, 3-(4-(1H-pyrazol-1-yl)benzyl)-6-((4-chlorophenyl)(hydroxy)(1-methyl-1H-imidazol-5-yl)methyl)-2-(diethylamino)quinoline-4-carbonitrile] was tested, and the inhibition at 6 µM (human RORγt LBD) was 73%.
In the case of `COc1c(Cc2ccccc2)c(C(F)(F)F)nc2ccc(C(O)(c3ccc(C(F)(F)F)nc3)c3cncn3C)cc12` (centres unmarked) [Example 106a, (3-Benzyl-4-methoxy-2-(trifluoromethyl)quinolin-6-yl)(1-methyl-1H-imidazol-5-yl)(6-(trifluoromethyl)pyridin-3-yl)methanol•TFA], the IC50 (human RORγt LBD) is reported as roughly 4000 nM.
